# Results: US12129255B2, “Pyrido [2,3-d]pyrimidine derivatives as inhibitors of human immunodeficiency virus replication” (VIIV HEALTHCARE UK (No. 5) LIMITED, priority 2019, dated 2024)
# How the values were obtained:
# [1] = IV pharmacokinetics in dog; type: in vivo, Beagle Dogs
# Experimental: PK was investigated in male CD1 mice, Wistar Han Rats, Cynomolgus monkeys, and Beagle Dogs. Two groups of animals (N=3 per group) received test compound either as an intravenous (IV) dose (1 mg/kg) or by oral gavage (5 mg/kg solution and suspension). Drug was formulated in 90% PEG 400, 10% ethanol for IV administration and in 90% PEG400, 5% ethanol for PO administration. Blood samples were collected at 0.167, 0.25, 0.5, 0.75, 1, 2, 3, 5, 7, 24, 48, 72 and 96 h post dose for IV; 0.25, 0.5, 0.75, 1, 2, 3, 5, 7, 24, 48, 72 and 96 h post dose for oral. Blood samples were collected into K3EDTA tubes and centrifuged at 1500 to 2000×g to obtain plasma. Plasma samples were stored at −20° C. until analysis by LC-MS/MS. All in vivo samples were injected on an Exion LC 4500 Triple Quad™ LC-MS/MS system where the column was maintained at 60° C. and the flow rate was 0.6 mL/min. All LC-MS/MS analysis parameters are captured electronically in the raw data files. Rat IV, Dog IV, Monkey IV, and Monkey PO PK samples were analyzed by General Analysis Method A. Mouse IV, Mouse PO, and Dog PO PK samples were analyzed by General Analysis Method B. Rat PO samples were analyzed by General Analysis Method C.
# The PK parameters were obtained by non-compartmental analysis of plasma concentration vs time data (Phoenix WinNonlin v8.1). The peak concentration (Cmax) and time for Cmax (Tmax) were recorded directly from experimental observations. The area under the curve from time zero to the last sampling time [AUC0-T] and the area under the curve from time zero to infinity [AUCINF] were calculated using the linear-log trapezoidal rule. The total plasma clearance (CLTp), steady-state volume of distribution (VSS), apparent elimination half-life (T-HALF), and mean residence time (MRT) were estimated after IV administration. Estimations of AUC and T-HALF were made using a minimum of three timepoints with quantifiable concentrations. The absolute oral bioavailability (F) was estimated as the ratio of dose-normalized AUC values following oral and IV doses.
# [2] = Metabolism in liver microsomes (rat); type: in vitro ADME; conditions: pH 7.4, 1 μM compound, 1 mg/mL microsomes, NADPH, read-out: Rat liver microsome T1/2
# Experimental: (§1) Liver microsomes from human, rat dog and monkey were thawed and diluted to a final concentration of 1 mg/mL in 100 mM potassium phosphate buffer (pH 7.4). Test compounds and controls were prepared at 100× final concentration of 1 μM in 1:1 acetonitrile:water (v/v) and aliquoted into microsomal mixture. The mixture was preincubated at 37° C. in a shaking water bath for 10 minutes. The incubations were performed in duplicate. Three controls were included in the incubations; warfarin, phenacetin, and verapamil. After the preincubation, the reaction was initiated with NADPH at a final concentration of 1 mM. At 0, 5, 15, 30, 45 and 60 minutes, 25 μL of sample was removed and quenched with 300 μL of acetonitrile containing internal standard (Telmisartan). The samples were vortexed for 5 minutes at 1200 rpm and then centrifuged at 4000 rpm for 10 min. A 100 μL aliquot of supernatant was diluted three-fold with water and injected on an Exion LC 4500 Triple Quad LC-MS/MS system. Results were reported as a percentage of parent remaining and was calculated from peak area ratios of test compound remaining after at each time point and compared to time zero incubation.
# [3] = Allometric scaling of pre-clinical PK parameters to predict dose in human
# Experimental: Human dose predictions were performed using Phoenix WinNonlin (v 8.0) software and Microsoft Excel using the ModelRisk add-in for population modeling. Human estimates for each compound's CLTp were obtained based on average allometric scaling of mouse, rat, monkey and dog IV data (body weight scaling factor of 0.75) and an average (body weight scaling factor of 1.0) from all species for VSS. Human IV parameters (Vc, Ka, K12, K21, Kel) were determined using Mean Residence Time (MRT) scaling from preclinical species (mouse, rat, dog and cyno) using the human VSS and CLTp estimates. Absorption (Ka) was determined by deconvolution (PO) or from the half-life (SC) in preclinical species (Ka=LN(2)/t1/2). The predicted human dose for PO and SC is calculated with consideration of human variability and is calculated to cover 95% of the human population.
# [4] = Metabolism in liver microsomes (human); type: in vitro ADME; conditions: pH 7.4, 1 μM compound, 1 mg/mL microsomes, NADPH, read-out: Human liver microsome T1/2
# Experimental: as §1
# [5] = Cytotoxicity in uninfected MT2 cells, XTT colorimetric assay; type: cell-based; conditions: human, day 4, XTT
# Experimental: Compound cytotoxicity and the corresponding CC50 values were determined using the same protocol as described in the antiviral assay except that uninfected cells were used. Cytotoxicity was assessed on day 4 in uninfected MT2 cells by using an XTT (2,3-bis[2-Methoxy-4-nitro-5-sulfophenyl]-2H-tetrazolium-5-carboxyanilide inner salt)-based colorimetric assay (Sigma-Aldrich, St Louis, Mo).
# [6] = Beagle, plasma, Dog, IV 1 mg/kg
smiles,measurement,setting,value
"Cn1nc(NS(C)(=O)=O)c2c(Cl)ccc(-n3c([C@H](Cc4cc(F)cc(F)c4)NC(=O)Cn4nc(C(F)F)c5c4C(F)(F)[C@@H]4C[C@H]54)nc4nc(OCCC(F)(F)F)ccc4c3=O)c21 (atropisomer, axis not shown; (P)) [Example 1, N—((S)-1-((3P)-3-(4-chloro-1-methyl-3-(methylsulfonamido)-1H-indazol-7-yl)-4-oxo-7-(3,3,3-trifluoropropoxy)-3,4-dihydropyrido[2,3-d]pyrimidin-2-yl)-2-(3,5-difluorophenyl)ethyl)-2-((3bS,4aR)-3-(difluoromethyl)-5,5-difluoro-3b,4,4a,5-tetrahydro-1H-cyclopropa[3,4]cyclopenta[1,2-c]pyrazol-1-yl)acetamide]",clearance,[1]; [6],1.68 mL/min/kg
same,half-life,[1]; [6],8.6 h
same,Vd,"[1]; Beagle, plasma, Dog, IV 1 mg/kg, read-out: Vss",0.83 L/kg
same,clearance improved relative to Example 60.2,"[1]; dog, IV",4.9 fold
same,half-life in circulation higher than Example 60.2,"[1]; dog, IV",3.4 fold
same,half-life at 1 μM,[2],> 2 h
same,predicted human QD PO dose,"[3]; once-daily oral, allometric scaling, to cover 95% of the human population",less than 10 mg
same,predicted Q1M SC dose in human lower than for Example 60.2,"[3]; once-monthly subcutaneous, from SC rat PK and predicted human clearance",15 fold
same,predicted once-daily oral dose in human lower than for Example 60.2,[3]; to maintain efficacious plasma concentration,7 fold
same,half-life at 1 μM,[4],> 2 h
same,CC50 at 4 days,[5],> 500 nM
